Measurements reported in patent US11697648B2, “Fused pyrimidine pyridinone compounds as JAK inhibitors” (THERAVANCE BIOPHARMA R&D IP, LLC, priority 2019, dated 2023).

Tests used:
JAK1 = JAK1 (Homo sapiens (Human), UniProt P23458); assay: Biochemical JAK1 kinase assay (LanthaScreen)
How it was run: (§1)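 GST-JAK + GFP-STAT1 peptide, HEPES pH 7.5/MgCl2/EGTA/Brij-35 buffer; cpd preincubation 1 h RT; ATP start, 1 h RT; stop with 10 mM EDTA + 2 nM Tb-anti-pSTAT1; TR-FRET 520/495. 4-parameter IC50 → pKi (Cheng-Prusoff).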

JAK2 = JAK2 (Homo sapiens (Human), UniProt O60674); assay: Biochemical JAK2 kinase assay (LanthaScreen)
Chain of JAK2 (O60674 whole entry): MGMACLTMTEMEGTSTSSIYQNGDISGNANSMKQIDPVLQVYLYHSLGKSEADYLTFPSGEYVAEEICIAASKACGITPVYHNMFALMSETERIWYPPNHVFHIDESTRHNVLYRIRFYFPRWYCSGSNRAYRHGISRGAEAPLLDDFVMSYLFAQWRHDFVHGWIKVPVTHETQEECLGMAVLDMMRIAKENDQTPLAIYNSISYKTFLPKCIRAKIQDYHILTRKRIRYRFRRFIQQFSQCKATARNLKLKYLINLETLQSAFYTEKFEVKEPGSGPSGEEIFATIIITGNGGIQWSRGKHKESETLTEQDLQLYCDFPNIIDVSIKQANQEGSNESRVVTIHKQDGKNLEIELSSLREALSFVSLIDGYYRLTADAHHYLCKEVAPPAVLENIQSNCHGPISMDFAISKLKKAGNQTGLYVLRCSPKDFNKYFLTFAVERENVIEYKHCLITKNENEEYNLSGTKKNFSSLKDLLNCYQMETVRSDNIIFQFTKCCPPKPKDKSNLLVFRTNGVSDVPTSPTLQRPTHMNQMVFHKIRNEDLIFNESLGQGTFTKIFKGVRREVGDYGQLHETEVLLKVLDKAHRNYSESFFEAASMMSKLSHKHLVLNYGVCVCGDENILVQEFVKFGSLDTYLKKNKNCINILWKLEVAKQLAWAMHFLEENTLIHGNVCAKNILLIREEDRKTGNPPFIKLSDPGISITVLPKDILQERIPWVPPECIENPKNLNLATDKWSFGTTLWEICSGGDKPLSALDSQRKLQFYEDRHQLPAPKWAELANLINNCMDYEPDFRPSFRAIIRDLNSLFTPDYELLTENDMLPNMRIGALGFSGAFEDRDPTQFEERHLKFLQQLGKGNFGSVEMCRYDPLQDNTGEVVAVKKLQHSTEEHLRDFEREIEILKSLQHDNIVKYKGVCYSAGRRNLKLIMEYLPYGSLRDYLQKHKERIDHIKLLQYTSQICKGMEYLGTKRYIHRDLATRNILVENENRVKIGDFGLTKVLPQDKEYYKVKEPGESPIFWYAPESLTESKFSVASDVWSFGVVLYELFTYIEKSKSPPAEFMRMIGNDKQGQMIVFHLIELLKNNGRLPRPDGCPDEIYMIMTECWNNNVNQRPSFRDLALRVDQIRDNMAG
How it was run: as §1

JAK3 = JAK3 (Homo sapiens (Human), UniProt P52333); assay: Biochemical JAK3 kinase assay (LanthaScreen)
Chain of JAK3 (P52333 whole entry): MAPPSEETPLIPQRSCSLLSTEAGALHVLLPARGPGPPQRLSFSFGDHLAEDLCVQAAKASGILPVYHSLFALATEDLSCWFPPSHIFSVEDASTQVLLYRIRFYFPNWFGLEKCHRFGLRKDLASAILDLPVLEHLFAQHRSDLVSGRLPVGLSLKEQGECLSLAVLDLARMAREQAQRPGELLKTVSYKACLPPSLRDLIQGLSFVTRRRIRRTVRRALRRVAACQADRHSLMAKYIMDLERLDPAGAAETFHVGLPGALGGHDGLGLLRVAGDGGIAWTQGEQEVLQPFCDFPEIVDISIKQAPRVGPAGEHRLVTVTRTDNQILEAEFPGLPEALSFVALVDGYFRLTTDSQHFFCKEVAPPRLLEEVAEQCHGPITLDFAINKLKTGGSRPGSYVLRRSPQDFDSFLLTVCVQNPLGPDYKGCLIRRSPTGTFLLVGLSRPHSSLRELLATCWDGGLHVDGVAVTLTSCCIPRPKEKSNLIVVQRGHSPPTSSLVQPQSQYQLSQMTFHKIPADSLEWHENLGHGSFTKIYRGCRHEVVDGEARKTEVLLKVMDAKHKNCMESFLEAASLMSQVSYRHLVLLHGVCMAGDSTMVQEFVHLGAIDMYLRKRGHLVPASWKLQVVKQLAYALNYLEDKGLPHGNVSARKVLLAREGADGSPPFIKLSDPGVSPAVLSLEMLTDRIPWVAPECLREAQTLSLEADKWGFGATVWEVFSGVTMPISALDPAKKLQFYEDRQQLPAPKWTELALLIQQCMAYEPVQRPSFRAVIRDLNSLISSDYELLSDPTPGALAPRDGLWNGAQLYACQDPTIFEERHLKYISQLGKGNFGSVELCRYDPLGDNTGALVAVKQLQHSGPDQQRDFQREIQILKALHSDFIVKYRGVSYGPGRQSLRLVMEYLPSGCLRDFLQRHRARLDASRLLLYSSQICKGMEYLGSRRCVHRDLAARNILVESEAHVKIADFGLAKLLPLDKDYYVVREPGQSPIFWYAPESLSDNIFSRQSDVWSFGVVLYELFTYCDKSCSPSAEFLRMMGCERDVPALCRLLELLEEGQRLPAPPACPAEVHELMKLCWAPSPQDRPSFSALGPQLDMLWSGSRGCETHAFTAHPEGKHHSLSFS
How it was run: as §1

Tyk2 = Tyk2 (Homo sapiens (Human), UniProt P29597); assay: Biochemical Tyk2 kinase assay (LanthaScreen)
Chain of Tyk2 (P29597 whole entry): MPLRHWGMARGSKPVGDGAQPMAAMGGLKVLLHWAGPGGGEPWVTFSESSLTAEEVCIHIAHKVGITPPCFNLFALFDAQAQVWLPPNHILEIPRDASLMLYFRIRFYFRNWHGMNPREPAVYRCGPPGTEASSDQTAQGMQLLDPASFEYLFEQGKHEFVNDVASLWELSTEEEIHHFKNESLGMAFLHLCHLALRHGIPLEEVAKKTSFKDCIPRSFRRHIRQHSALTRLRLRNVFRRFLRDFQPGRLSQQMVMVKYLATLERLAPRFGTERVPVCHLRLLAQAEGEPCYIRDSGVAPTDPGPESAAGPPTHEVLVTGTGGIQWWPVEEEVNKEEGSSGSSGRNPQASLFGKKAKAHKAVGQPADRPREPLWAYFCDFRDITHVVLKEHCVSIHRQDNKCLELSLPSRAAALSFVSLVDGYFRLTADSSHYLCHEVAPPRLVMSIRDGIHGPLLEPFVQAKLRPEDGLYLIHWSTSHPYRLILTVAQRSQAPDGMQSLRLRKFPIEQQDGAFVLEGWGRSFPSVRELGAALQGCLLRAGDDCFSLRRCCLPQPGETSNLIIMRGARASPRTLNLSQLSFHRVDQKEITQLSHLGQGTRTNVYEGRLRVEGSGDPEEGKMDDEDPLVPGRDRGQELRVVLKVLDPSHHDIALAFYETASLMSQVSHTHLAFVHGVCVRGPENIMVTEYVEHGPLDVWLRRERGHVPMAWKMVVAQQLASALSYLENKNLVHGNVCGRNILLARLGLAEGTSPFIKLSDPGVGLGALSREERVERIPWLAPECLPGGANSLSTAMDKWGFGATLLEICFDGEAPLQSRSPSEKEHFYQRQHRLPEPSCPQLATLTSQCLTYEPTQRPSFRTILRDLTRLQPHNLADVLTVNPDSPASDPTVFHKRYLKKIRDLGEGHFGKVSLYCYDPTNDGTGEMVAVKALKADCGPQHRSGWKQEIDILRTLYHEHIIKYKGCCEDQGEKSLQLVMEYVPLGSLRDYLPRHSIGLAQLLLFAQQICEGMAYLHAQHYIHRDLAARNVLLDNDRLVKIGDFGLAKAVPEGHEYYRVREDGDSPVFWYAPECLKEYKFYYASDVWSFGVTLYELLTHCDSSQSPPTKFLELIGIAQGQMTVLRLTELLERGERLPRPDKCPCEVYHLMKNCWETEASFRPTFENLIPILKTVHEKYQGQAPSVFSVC
How it was run: as §1

[1] = tested on: IL-2 stimulated STAT5 phosphorylation in Tall-1 human T cell line (JAK3); assay: Cellular JAK3 potency assay: inhibition of IL-2 stimulated pSTAT5 in Tall-1 T cells; assay type: cell-based
How it was run: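 Tall-1 cells, 45,000 per well, preincubated 1 hour with compound at 37 °C, then stimulated 30 minutes with IL-2 at 300 ng/ml final. pSTAT5 (Tyr694/699) in lysates quantified by AlphaLISA SureFire Ultra. pIC50 derived from inhibition curves, given as mean with SD.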

[2] = selectivity JAK3 over JAK1, difference of pKi
[3] = IL-2 stimulated pSTAT5, Tall-1 T cells
[4] = selectivity, difference of pKi values
[5] = IL-2 stimulated pSTAT5 in Tall-1 T cells

Chain of JAK1 (P23458 whole entry): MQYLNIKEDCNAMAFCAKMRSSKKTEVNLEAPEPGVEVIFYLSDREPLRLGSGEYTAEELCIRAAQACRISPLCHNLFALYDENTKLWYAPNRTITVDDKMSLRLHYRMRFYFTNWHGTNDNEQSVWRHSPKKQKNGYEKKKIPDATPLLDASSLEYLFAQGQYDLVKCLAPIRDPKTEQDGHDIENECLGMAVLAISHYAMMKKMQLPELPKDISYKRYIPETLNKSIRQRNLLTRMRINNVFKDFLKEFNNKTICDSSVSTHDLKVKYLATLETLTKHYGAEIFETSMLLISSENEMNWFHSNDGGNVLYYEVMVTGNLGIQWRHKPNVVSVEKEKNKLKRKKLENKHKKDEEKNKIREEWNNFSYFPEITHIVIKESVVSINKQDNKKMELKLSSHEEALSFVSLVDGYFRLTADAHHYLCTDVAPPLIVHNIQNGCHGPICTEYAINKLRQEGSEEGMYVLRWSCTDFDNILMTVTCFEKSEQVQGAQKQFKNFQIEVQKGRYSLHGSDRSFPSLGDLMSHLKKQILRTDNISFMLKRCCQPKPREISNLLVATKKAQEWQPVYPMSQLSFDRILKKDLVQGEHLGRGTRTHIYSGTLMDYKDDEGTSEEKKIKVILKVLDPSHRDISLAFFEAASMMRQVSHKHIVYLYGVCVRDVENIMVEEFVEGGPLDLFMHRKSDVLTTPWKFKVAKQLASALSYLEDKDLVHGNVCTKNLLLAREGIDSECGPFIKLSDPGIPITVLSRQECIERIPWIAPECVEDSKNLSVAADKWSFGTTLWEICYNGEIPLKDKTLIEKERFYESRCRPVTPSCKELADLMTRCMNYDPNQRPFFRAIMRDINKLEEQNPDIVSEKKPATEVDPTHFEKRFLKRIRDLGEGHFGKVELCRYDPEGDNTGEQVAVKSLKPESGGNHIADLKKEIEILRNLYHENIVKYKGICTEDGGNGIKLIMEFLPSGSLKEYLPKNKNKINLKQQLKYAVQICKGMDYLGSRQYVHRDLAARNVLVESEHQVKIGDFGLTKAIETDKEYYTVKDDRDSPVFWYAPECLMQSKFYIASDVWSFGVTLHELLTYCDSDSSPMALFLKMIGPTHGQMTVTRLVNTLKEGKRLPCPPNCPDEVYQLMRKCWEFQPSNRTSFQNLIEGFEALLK

Structure (SMILES)	JAK 1 (pKi) (JAK1)	JAK 2 (pKi) (JAK2)	JAK 3 (pKi) (JAK3)	JAK3 (pKi)-JAK1 (pKi) (JAK3; [2])	Tyk 2 (pKi) (Tyk2)	Tall-1 (pIC50) [1, 3]	JAK3 (pKi)-JAK1 (pKi) (JAK3; [4])	Tall-1 (pIC50) [1, 5]
C=CC(=O)N1CC(CCn2c(=O)ccc3cnc(Nc4ccc(N5CCN(C(=O)NC)CC5)cc4)nc32)C1 [Example 93]	E (E represents a pKi value of 7 or below (Ki of 100 nM or above))	E (E represents a pKi value of 7 or below (Ki of 100 nM or above))	A (A represents a pKi value≥10 (Ki≤0.1 nM))	A (A represents a value of 3 or above)	E (E represents a pKi value of 7 or below (Ki of 100 nM or above))	B (B represents a pC50 value between 6.7 (included) and 7.5 (IC50 between 200 nM and 32 nM))		
C=CC(=O)N1CC(C(C)(C)Cn2c(=O)ccc3cnc(Nc4ccc(N5CCN(C)CC5)cc4)nc32)C1 [Example 246]	E (E represents a pKi value of 7 or below (Ki of 100 nM or above))	E (E represents a pKi value of 7 or below (Ki of 100 nM or above))	B (B represents pKi value between 9 and 10 (Ki between 1 nM and 0.1 nM))		E (E represents a pKi value of 7 or below (Ki of 100 nM or above))		A (A represents a value of 3 or above)	B (B represents a pC50 value between 6.7 (included) and 7.5 (IC50 between 200 nM and 32 nM))
C=CC(=O)N1CC(CCn2c(=O)ccc3cnc(Nc4ccc(N5CCOCC5)c(F)c4)nc32)C1 [Example 23]	E (E represents a pKi value of 7 or below (Ki of 100 nM or above))	E (E represents a pKi value of 7 or below (Ki of 100 nM or above))	B (B represents pKi value between 9 and 10 (Ki between 1 nM and 0.1 nM))	A (A represents a value of 3 or above)	E (E represents a pKi value of 7 or below (Ki of 100 nM or above))	B (B represents a pC50 value between 6.7 (included) and 7.5 (IC50 between 200 nM and 32 nM))		
C=CC(=O)N1CCN(C(C)(C)Cn2c(=O)ccc3cnc(Nc4ccc(N5CCN(C(C)=O)CC5)cc4)nc32)CC1 [Example 200]	E (E represents a pKi value of 7 or below (Ki of 100 nM or above))	E (E represents a pKi value of 7 or below (Ki of 100 nM or above))	C (C represents a pKi value between 8 and 9 (Ki between 10 nM and 1 nM))	B (B represents a value of 2.5 to 3)	E (E represents a pKi value of 7 or below (Ki of 100 nM or above))	C (C represents a pIC50 value between 6 and 6.7 (IC50 between 1 μM and 200 nM))		
C=CC(=O)N1CCN(CCn2c(=O)ccc3cnc(Nc4cnn(C5CCOCC5)c4)nc32)[C@@H](C)C1 [Example 250]	E (E represents a pKi value of 7 or below (Ki of 100 nM or above))	E (E represents a pKi value of 7 or below (Ki of 100 nM or above))	B (B represents pKi value between 9 and 10 (Ki between 1 nM and 0.1 nM))		E (E represents a pKi value of 7 or below (Ki of 100 nM or above))		A (A represents a value of 3 or above)	B (B represents a pC50 value between 6.7 (included) and 7.5 (IC50 between 200 nM and 32 nM))
C=CC(=O)N1CCN(CCn2c(=O)ccc3cnc(Nc4ccc(N5CCN(C(=O)COC)CC5)cc4)nc32)CC1 [Example 144]	E (E represents a pKi value of 7 or below (Ki of 100 nM or above))	E (E represents a pKi value of 7 or below (Ki of 100 nM or above))	A (A represents a pKi value≥10 (Ki≤0.1 nM))	A (A represents a value of 3 or above)	E (E represents a pKi value of 7 or below (Ki of 100 nM or above))	B (B represents a pC50 value between 6.7 (included) and 7.5 (IC50 between 200 nM and 32 nM))		
C=CC(=O)N1CCN(CCn2c(=O)ccc3cnc(Nc4ccc(N5CCN(C(=O)CC(C)C)CC5)cc4)nc32)CC1 [Example 212]	E (E represents a pKi value of 7 or below (Ki of 100 nM or above))	E (E represents a pKi value of 7 or below (Ki of 100 nM or above))	A (A represents a pKi value≥10 (Ki≤0.1 nM))	A (A represents a value of 3 or above)	E (E represents a pKi value of 7 or below (Ki of 100 nM or above))	B (B represents a pC50 value between 6.7 (included) and 7.5 (IC50 between 200 nM and 32 nM))		
C=CC(=O)N1CCN(CCn2c(=O)ccc3cnc(Nc4cnn(-c5ccccc5)c4)nc32)[C@@H](C)C1 [Example 235]	E (E represents a pKi value of 7 or below (Ki of 100 nM or above))	E (E represents a pKi value of 7 or below (Ki of 100 nM or above))	B (B represents pKi value between 9 and 10 (Ki between 1 nM and 0.1 nM))	A (A represents a value of 3 or above)	E (E represents a pKi value of 7 or below (Ki of 100 nM or above))	B (B represents a pC50 value between 6.7 (included) and 7.5 (IC50 between 200 nM and 32 nM))		
C=CC(=O)N1CC(CCn2c(=O)ccc3cnc(Nc4ccc(N5CCN(CC)CC5)cc4)nc32)C1 [Example 114]	E (E represents a pKi value of 7 or below (Ki of 100 nM or above))	E (E represents a pKi value of 7 or below (Ki of 100 nM or above))	A (A represents a pKi value≥10 (Ki≤0.1 nM))	A (A represents a value of 3 or above)	E (E represents a pKi value of 7 or below (Ki of 100 nM or above))	A (A represents a pIC50 value≥7.5 (IC50≤32 nM))		
C=CC(=O)N1CCN(CCn2c(=O)ccc3cnc(Nc4cnn(CC)c4)nc32)[C@@H](CC)C1 [Example 242]	E (E represents a pKi value of 7 or below (Ki of 100 nM or above))	E (E represents a pKi value of 7 or below (Ki of 100 nM or above))	B (B represents pKi value between 9 and 10 (Ki between 1 nM and 0.1 nM))		E (E represents a pKi value of 7 or below (Ki of 100 nM or above))		A (A represents a value of 3 or above)	B (B represents a pC50 value between 6.7 (included) and 7.5 (IC50 between 200 nM and 32 nM))
C=CC(=O)N1CCN(CCn2c(=O)ccc3cnc(Nc4cnn(C5CCN(C)CC5)c4)nc32)[C@@H](C)C1 [Example 231]	E (E represents a pKi value of 7 or below (Ki of 100 nM or above))	E (E represents a pKi value of 7 or below (Ki of 100 nM or above))	B (B represents pKi value between 9 and 10 (Ki between 1 nM and 0.1 nM))	A (A represents a value of 3 or above)	E (E represents a pKi value of 7 or below (Ki of 100 nM or above))	B (B represents a pC50 value between 6.7 (included) and 7.5 (IC50 between 200 nM and 32 nM))		
C=CC(=O)N1CC(CCn2c(=O)ccc3cnc(Nc4ccc5[nH]c(=O)oc5c4)nc32)C1 [Example 59]	E (E represents a pKi value of 7 or below (Ki of 100 nM or above))	E (E represents a pKi value of 7 or below (Ki of 100 nM or above))	B (B represents pKi value between 9 and 10 (Ki between 1 nM and 0.1 nM))	A (A represents a value of 3 or above)	E (E represents a pKi value of 7 or below (Ki of 100 nM or above))	C (C represents a pIC50 value between 6 and 6.7 (IC50 between 1 μM and 200 nM))		
C=CC(=O)N1CC(CCn2c(=O)ccc3cnc(Nc4cnn(-c5ccccc5)c4)nc32)C1 [Example 34]	E (E represents a pKi value of 7 or below (Ki of 100 nM or above))	E (E represents a pKi value of 7 or below (Ki of 100 nM or above))	B (B represents pKi value between 9 and 10 (Ki between 1 nM and 0.1 nM))	A (A represents a value of 3 or above)	E (E represents a pKi value of 7 or below (Ki of 100 nM or above))	B (B represents a pC50 value between 6.7 (included) and 7.5 (IC50 between 200 nM and 32 nM))		
C=CC(=O)N1CC(CCn2c(=O)ccc3cnc(Nc4cccc(C(=O)N5CCOCC5)c4)nc32)C1 [Example 65]	E (E represents a pKi value of 7 or below (Ki of 100 nM or above))	E (E represents a pKi value of 7 or below (Ki of 100 nM or above))	B (B represents pKi value between 9 and 10 (Ki between 1 nM and 0.1 nM))	A (A represents a value of 3 or above)	E (E represents a pKi value of 7 or below (Ki of 100 nM or above))	C (C represents a pIC50 value between 6 and 6.7 (IC50 between 1 μM and 200 nM))		
C=CC(=O)N1CCN(CCn2c(=O)ccc3cnc(Nc4ccc(N5CCN(C)CC5)nc4)nc32)CC1 [Example 37]	E (E represents a pKi value of 7 or below (Ki of 100 nM or above))	E (E represents a pKi value of 7 or below (Ki of 100 nM or above))	B (B represents pKi value between 9 and 10 (Ki between 1 nM and 0.1 nM))	A (A represents a value of 3 or above)	E (E represents a pKi value of 7 or below (Ki of 100 nM or above))	B (B represents a pC50 value between 6.7 (included) and 7.5 (IC50 between 200 nM and 32 nM))		
